According to the METLIN SMRT retention time set (Domingo-Almenara et al. 2019):

Experiment: gradient 5% acetonitrile 3 min, to 50% in 2 min, to 85% in 15 min, held 3 min, 100 µL/min
Settings: column: Zorbax Extend-C18 2.1 x 50 mm; eluents: water / acetonitrile, 0.1% formic acid
Outline: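 Retention times come from adduct peaks that were picked computationally and then checked by hand. The standards, pure and pooled in mixtures of ~100 molecules, were run on a Zorbax Extend-C18 column (2.1 × 50 mm, 1.8 μm) at 100 μL/min with water and acetonitrile, each with 0.1% formic acid. Detection was by quadrupole time-of-flight mass spectrometry in positive and negative ionization mode, with a dead volume of 40 μL and a dwell volume of 900 μL.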

Compound	RP-LC retention time
CC(C)n1c(CCNC(=O)c2cc(F)cc(F)c2)nc2cccnc21	694 s
CCc1ccc2[nH]c3c(c(=O)c2c1)CN(CC(=O)Nc1ccc(OC)c(Cl)c1)CC3	636 s
CCCCCCCCOC(=O)/C=C/c1ccc(O)c(O)c1	630 s
Cc1sc(-c2noc(C3CC3)n2)cc1S(=O)(=O)N1CCC(C(=O)NCc2ccco2)CC1	945 s
O=c1ccn(-c2ccc(Cl)cc2)nc1-c1nc(-c2ccc(Cl)cc2)no1	1040 s
O=C(NC1CC1)c1ccc(OCC2CCCN2C(=O)c2cccc(F)c2)cc1 (stereo not given)	778 s
Cc1ccccc1N1OC2C(=O)N(c3ccc(F)cc3)C(=O)C2C1c1ccncc1 (stereo not given)	671 s
Cc1oc(C2CCN(S(=O)(=O)c3cccc(F)c3)CC2)nc1C(=O)N1CCCC1	913 s
COCCNS(=O)(=O)c1cc(-c2nc(C)cs2)n(CC(=O)N2CCCCC2)c1	755 s
CCc1noc(C2(NC(=O)c3ccc(C(C)(C)C)cc3)CCCCC2)n1	1190 s
COc1cccc(-c2csc(CN3CCNCC3)n2)c1	566 s
Cc1cnc(-c2ccccc2)n1C1CN(S(=O)(=O)c2cccc(F)c2)C1	670 s
O=C([C@@H]1C[C@H](F)CN1C(=O)Cc1ccc(F)cc1)N1CCCCC1	601 s
CC(C)(C)n1nc2c(c1NC(=O)c1cccs1)CS(=O)(=O)C2	690 s
c1ccc(-c2nc3ccccc3s2)nc1	1010 s
COc1ccc(NC(=O)c2noc3c2CCCCC3)c(OC)c1	1080 s
CCCCn1c(=O)c2ccccc2n(Cc2nc(-c3ccc(F)c(Cl)c3)no2)c1=O	1290 s
O=C(CSc1cc(-n2cccn2)ncn1)Nc1cc(Cl)ccc1Cl	1090 s
CCOc1ccc(Nc2c(-c3ccc(SC)cc3)nc3cnccn23)cc1	994 s
COc1cccc(S(=O)(=O)NCc2ccc(C(=O)Nc3cccc(Cl)c3)cc2)c1	922 s
CCOc1cccc(=O)c2c(C)n(-c3nc(-c4ccc(OC)cc4)c(C)s3)c(C)c12	1160 s
CC(CCc1ccccc1)NC(=O)C1CCCN(c2nccnc2Oc2ccccc2)C1 (stereo not given)	1100 s
O=C(c1ccc2cc[nH]c2c1)N1CCN(C(=O)c2cc(-c3ccncc3)n[nH]2)CC1	594 s
Cc1ccc(C(=O)N2C[C@@H]3C[C@H]2C[C@@H]3NS(=O)(=O)c2ccccc2)cn1	615 s
O=C(c1ccn[nH]1)N1CCC[C@H]1c1nc(C2CCOCC2)n[nH]1	558 s
COc1ccc(-c2nnc(-c3ccc(C)c(S(=O)(=O)NCc4cccnc4)c3)o2)cc1OC	660 s
Clc1ccc(-c2ccc(CNCc3ccccn3)o2)c(Cl)c1	734 s
O=C(NC1CC1)c1nc(-c2cccs2)cs1	835 s

Second part, the molecule after the results:

RP-LC retention time	Compound
942 s	c1ccc(-c2nc(-c3ccnc(N4CCOCC4)c3)no2)cc1
618 s	CCOC(=O)C1=C(CN(CC)CC)N(C)C(=O)NC1c1ccccc1 (stereo not given)
1170 s	COc1ccc(N/C=C2\C(=O)CCc3c2oc2cc(Cl)c(O)c(Cl)c32)cc1
921 s	Cc1cc2c(c(=O)n(-c3ccc(F)cc3)c(=O)n2CC(=O)Nc2cccc(C(C)C)c2)n1C
1000 s	CCOc1ccc(NC(=O)C2(C)Oc3cccnc3N(C(C)C)C2=O)cc1 (stereo not given)
814 s	O=C(CCc1c[nH]c2ccccc12)N1CCN(C(=O)c2cc(-c3cccnc3)n[nH]2)CC1
548 s	O=C(NC1CCN(c2cc(N3CCOCC3)cnn2)C1)C1CCCC1 (stereo not given)
1180 s	COc1ccc(OC)c(NC(=O)CSc2cc(N3CCN(c4ccccc4F)CC3)ncn2)c1
857 s	Cc1ccccc1C(=O)NCc1nn(C)c2ccccc12
877 s	Cc1ccc(F)cc1NS(=O)(=O)c1cc2c(s1)CCN(C(=O)C1CCC1)C2
1270 s	CCCCCCC(=O)Nc1nc(-c2ccc(Cl)cc2)cs1
1010 s	Brc1ccc(-c2nc(NCCC3=CCCCC3)c3ccccc3n2)cc1
885 s	CCNC(=O)N1CCN(c2ccc(-c3noc(C4CC(=O)N(c5ccc(C)c(C)c5)C4)n3)cc2)CC1 (stereo not given)
699 s	COCCCNC(=O)C1CCCN(S(=O)(=O)c2cc(OC)ccc2OC)C1 (stereo not given)
776 s	COc1ccccc1OCCNC(=O)C1CCc2nc(N3CCC(C)CC3)ncc2C1 (stereo not given)
1310 s	O=C(Nc1nc(-c2ccc(Cl)cc2)cs1)c1ccc(COc2ccccc2Cl)o1
1190 s	O=C1COc2cc(Cl)ccc2N1Cc1nc(-c2ccc(F)c(Cl)c2)no1
